These are literature values, as cited in US20190203207A1, “Anabolic Enhancers for Ameliorating Neurodegeneration” (priority 2016, published 2019).

The test system of this data set is insulin/mTOR signaling pathway.

Entries after “also recorded” stand apart in the source; their conditions may differ.

For the substance insulin, the “GLUT1 and HIF1a levels” value (insulin injection, four RP mouse models) is listed as “increased levels”. The “Cone survival / cone degeneration” value (systemic insulin, four RP mouse models (Punzo et al.)) is “encouraged cone survival; also recorded: delay degeneration of cones”.
